Here are results for nine compounds from article PMC12175894 (Science Advances, 2025).

“Also recorded” adds a separate entry of the source.

Data set [1] concerns the target T1, 5-HT1AR wildtype (Homo sapiens, UniProt P08908).
T1 construct: host or cells: HEK293T, HEK293A, HEK293AΔGs, HEK293AΔGi/o, HEK293AΔARRB1/B2
T1 sequence (P08908 1-422): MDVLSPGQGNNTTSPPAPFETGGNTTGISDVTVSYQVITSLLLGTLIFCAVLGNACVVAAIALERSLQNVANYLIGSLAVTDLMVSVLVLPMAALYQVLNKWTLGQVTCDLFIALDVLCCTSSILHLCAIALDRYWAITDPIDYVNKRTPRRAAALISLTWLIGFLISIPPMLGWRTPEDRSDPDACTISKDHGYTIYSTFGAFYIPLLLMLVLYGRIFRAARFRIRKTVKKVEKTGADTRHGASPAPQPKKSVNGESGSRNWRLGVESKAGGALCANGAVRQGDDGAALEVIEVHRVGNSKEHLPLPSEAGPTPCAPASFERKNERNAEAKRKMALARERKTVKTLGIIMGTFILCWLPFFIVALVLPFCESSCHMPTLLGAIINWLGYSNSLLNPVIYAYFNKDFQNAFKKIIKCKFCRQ
Nature of the data set: GloSensor inhibition of cAMP accumulation in HEK293AΔGs. The data set is classed as cell-based. (In general: Cyclic AMP is a second messenger, typically raised through Gs and lowered through Gi signalling.)

Data set [2] deals with T1, 5-HT1AR wildtype. Briefly: GloSensor cAMP accumulation in HEK293AΔGi/o. Format: cell-based. The note with it: for Emax: read-out: Emax [% ± SEM], cAMP accumulation.
The target in data set [3] is T1, 5-HT1AR wildtype. Briefly: β-arrestin 2 recruitment, enhanced bystander BRET in HEK293T with GRK2. The data set is classed as cell-based. As to conditions: for Emax: HEK-293T, read-out: Emax [% ± SEM], β-arrestin 2 recruitment. (Arrestin recruitment assays detect the binding of arrestin to an activated receptor.)
The target in data set [4] is T2, 5-HT1AR wt (Homo sapiens, UniProt P08908).
T2 construct: host or cells: HEK293T, transient; membranes
T2 sequence (P08908 1-422): T1 sequence (P08908 1-422)
Nature of the data set: Radioligand competition, displacement of [3H]WAY100635. Format: binding. As to conditions: fig. S1C, in words. A general note: Displacement assays read how much labelled ligand stays bound in the presence of the test substance.

In data set [5] the target is T3, 5-HT1AR (Homo sapiens, UniProt P08908).
T3 sequence (P08908 1-422): T1 sequence (P08908 1-422)
Nature of the data set: BRET-based cAMP assay (CAMYEL biosensor) in CHO-K1 cells. The data set is classed as cell-based. As to conditions: inhibition of cAMP accumulation, CAMYEL, fig. S1C, in words.

Data set [6] deals with male C56BL/6 mice. Nature of the data set: 52°C hot plate. Format: in vivo, mouse. As to conditions: wild-type mice, 10 mg/kg.
Data set [7] has as its system 5-HT1AR KO mice. Briefly: 52°C hot plate in 5-HT1AR KO mice. Format: in vivo, mouse. As to conditions: 10 mg/kg.
A short description of data set [8]: Metabolic stability with rat liver microsomes. As to conditions: after 1 h incubation. Format: in vitro ADME.
Data set [9] addresses human WT 5-HT1AR with C-terminal ARMS2-PK2 (human) (UniProt P08908). Nature of the data set: split reporter.
Where [10] appears, read: read-out: Emax [% ± SEM], inhibition of cAMP accumulation.

For the compound `CCN(CC)C(=O)N[C@H]1C=C2c3cccc4[nH]cc(c34)C[C@H]2N(C)C1` [(S)-(-)lisuride, (S)-(−)-lisuride], in data set [1] (HEK293AΔGs, wildtype, relative to serotonin), the “Emax [% ± SEM], inhibition of cAMP accumulation” value is 68 ± 4%. Further, the “Emax [% ± SEM], cAMP accumulation” value in data set [2] (HEK293AΔGi/o, wildtype, relative to serotonin) was 29 ± 4%. Moreover, the “Emax [% ± SEM], β-arrestin 2 recruitment” value in data set [3] (HEK293T with GRK2, wildtype, relative to serotonin) is 46 ± 3%.

Take `COc1ccccc1OCCCNCCCOc1ccc2c(c1)NC(=O)CO2` [TA12]: in data set [4], the “5-HT1AR binding relative to ST171 (SAR study)” value is “reduced binding affinity; also recorded: attenuation of binding”. Further, the “potency and efficacy / receptor activation relative to ST171 (SAR study)” value in [5] was “attenuation of binding and receptor activation”.

For the compound `CSc1ccccc1OCCNCCCOc1ccc2c(c1)NC(=O)CO2` [TA48], the “potency and efficacy / receptor activation relative to ST171 (SAR study)” value in data set [5] is “considerable reduction of potency and efficacy”.

Usually Emax stands for the size of the effect at its maximum, as opposed to the concentration needed. For `O=C1CCc2ccc(OCCCCN3CCN(c4cccc(Cl)c4Cl)CC3)cc2N1` [aripiprazole], the Emax in data set [1] (read-out: Emax [% ± SEM], inhibition of cAMP accumulation, HEK293AΔGs, wildtype, relative to serotonin) is 90 ± 9%; in data set [2], below 5%.

With `O=C1CC2(CCCC2)CC(=O)N1CCCCN1CCN(c2ncccn2)CC1` [buspirone], the Emax was 58 ± 1% in data set [1] (setting [10]), below 5% in data set [2] and below 5% in [3].

Turning to `CN1CC[C@]23c4c5ccc(O)c4O[C@H]2[C@@H](O)C=C[C@H]3[C@H]1C5` [morphine], the “response latency, 52°C hot plate” value in data set [6] is “significantly increased the response latency”. Further, in data set [7], the “response latency, hot plate in 5-HT1AR KO mice” value is reported as “significantly increased the response latency”.

`CCCN(CCc1cccs1)[C@H]1CCc2c(O)cccc2C1` [rotigotine, reference compound] registered an intact substrate remaining in [8] below 15%.

As a reminder, the EC50 is the concentration at which the effect is half-maximal. Take `O=C1Cc2cc(CCN3CCN(c4nsc5ccccc45)CC3)c(Cl)cc2N1` [ziprasidone]: the “lower potency compared to ST171, Gi/o pathway” value in data set [1] (HEK293AΔGs) was “more than 70 fold”. The EC50 in [1] (HEK293AΔGs, wildtype, read-out: EC50 [nM ± SEM], inhibition of cAMP accumulation) was found to be 370 ± 140 nM. Further, the Emax in data set [1] (setting [10]) was 57 ± 7%; in data set [2], below 5%; in data set [3], below 5%.

In [9], “β-arrestin 2 labeled with the enzyme acceptor (from UniProt P32121 1-409) (natural protein)” yielded an Emax of recruitment with ST171, elevated GRK2 (% of serotonin) of 15% and an Emax of recruitment with ST171, native GRK2 (% of serotonin) below 5%.
